According to PubChem BioAssay (NCI):
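Protocol summary: plate cells (96-well), add compound at 5 concentrations, incubate 48 h, interpolate endpoints linearly. GI50 = concentration required for 50% inhibition of growth. TGI: total growth inhibition.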

Columns and labels:
Assay in all cases: NCI-60 cell line screen, 48 h
786-0 renal = test system: 786-0 renal
A498 renal = test system: A498 renal
A549 NSCLC = test system: A549 NSCLC
ACHN renal = test system: ACHN renal
BT-549 breast = test system: BT-549 breast
CAKI-1 renal = test system: CAKI-1 renal
CCRF-CEM leukemia = test system: CCRF-CEM leukemia
COLO 205 colon = test system: COLO 205 colon
DU-145 prostate = test system: DU-145 prostate
EKVX NSCLC = test system: EKVX NSCLC
HCC-2998 colon = test system: HCC-2998 colon
HCT-116 colon = test system: HCT-116 colon
HCT-15 colon = test system: HCT-15 colon
HL-60(TB) leukemia = test system: HL-60(TB) leukemia
HOP-62 NSCLC = test system: HOP-62 NSCLC
HOP-92 NSCLC = test system: HOP-92 NSCLC
HS 578T breast = test system: HS 578T breast
HT29 colon = test system: HT29 colon
IGROV1 ovarian = test system: IGROV1 ovarian
K-562 leukemia = test system: K-562 leukemia
KM12 colon = test system: KM12 colon
LOX IMVI melanoma = test system: LOX IMVI melanoma
M14 melanoma = test system: M14 melanoma
MALME-3M melanoma = test system: MALME-3M melanoma
MCF7 breast = test system: MCF7 breast
MDA-MB-231 breast = test system: MDA-MB-231 breast
MDA-MB-435 = test system: MDA-MB-435
MDA-MB-468 breast = test system: MDA-MB-468 breast
MOLT-4 leukemia = test system: MOLT-4 leukemia
NCI-H226 lung = test system: NCI-H226 lung
NCI-H23 lung = test system: NCI-H23 lung
NCI-H460 lung = test system: NCI-H460 lung
NCI-H522 lung = test system: NCI-H522 lung
OVCAR-3 ovarian = test system: OVCAR-3 ovarian
OVCAR-4 ovarian = test system: OVCAR-4 ovarian
OVCAR-5 ovarian = test system: OVCAR-5 ovarian
OVCAR-8 ovarian = test system: OVCAR-8 ovarian
PC-3 prostate = test system: PC-3 prostate
RPMI-8226 leukemia = test system: RPMI-8226 leukemia
RXF 393 renal = test system: RXF 393 renal
SF-268 CNS = test system: SF-268 CNS
SF-295 CNS = test system: SF-295 CNS
SF-539 CNS = test system: SF-539 CNS
SK-MEL-2 melanoma = test system: SK-MEL-2 melanoma
SK-MEL-28 melanoma = test system: SK-MEL-28 melanoma
SK-MEL-5 melanoma = test system: SK-MEL-5 melanoma
SK-OV-3 ovarian = test system: SK-OV-3 ovarian
SN12C renal = test system: SN12C renal
SNB-19 CNS = test system: SNB-19 CNS
SNB-75 CNS = test system: SNB-75 CNS
SR leukemia = test system: SR leukemia
SW-620 colon = test system: SW-620 colon
T-47D breast = test system: T-47D breast
TK-10 renal = test system: TK-10 renal
U251 CNS = test system: U251 CNS
UACC-257 melanoma = test system: UACC-257 melanoma
UACC-62 melanoma = test system: UACC-62 melanoma
UO-31 renal = test system: UO-31 renal

SMILES: N#Cc1c(-c2ccc(Br)cc2)nc2n[nH]c(-c3ccc(Br)cc3)c2c1-c1ccc(C(F)(F)F)cc1
- GI50 (786-0 renal): 7.85 µM
- TGI (786-0 renal): 28.1 µM
- GI50 (A498 renal): 15.1 µM
- TGI (A498 renal): 45.2 µM
- GI50 (A549 NSCLC): 4.62 µM
- TGI (A549 NSCLC): > 100 µM
- GI50 (ACHN renal): 3.26 µM
- TGI (ACHN renal): 14.3 µM
- GI50 (BT-549 breast): 2.56 µM
- TGI (BT-549 breast): 8.18 µM
- GI50 (CAKI-1 renal): 4.01 µM
- TGI (CAKI-1 renal): 24.2 µM
- GI50 (CCRF-CEM leukemia): 3.05 µM
- TGI (CCRF-CEM leukemia): 13 µM
- GI50 (COLO 205 colon): 3.88 µM
- TGI (COLO 205 colon): 15.9 µM
- GI50 (DU-145 prostate): 5.45 µM
- TGI (DU-145 prostate): > 100 µM
- GI50 (EKVX NSCLC): 3.05 µM
- TGI (EKVX NSCLC): 27.3 µM
- GI50 (HCC-2998 colon): 5.27 µM
- TGI (HCC-2998 colon): 27.1 µM
- GI50 (HCT-116 colon): 3.42 µM
- TGI (HCT-116 colon): 73.2 µM
- GI50 (HCT-15 colon): 3.29 µM
- TGI (HCT-15 colon): 19.1 µM
- GI50 (HL-60(TB) leukemia): 2.03 µM
- TGI (HL-60(TB) leukemia): 6.13 µM
- GI50 (HOP-62 NSCLC): 14.1 µM
- TGI (HOP-62 NSCLC): 44.7 µM
- GI50 (HOP-92 NSCLC): 1.65 µM
- TGI (HOP-92 NSCLC): 4.73 µM
- GI50 (HS 578T breast): 10.2 µM
- TGI (HS 578T breast): 49.1 µM
- GI50 (HT29 colon): 3.84 µM
- TGI (HT29 colon): 35.7 µM
- GI50 (IGROV1 ovarian): 2.71 µM
- TGI (IGROV1 ovarian): 15.4 µM
- GI50 (K-562 leukemia): 2.61 µM
- TGI (K-562 leukemia): 10.3 µM
- GI50 (KM12 colon): 4.4 µM
- TGI (KM12 colon): 26.8 µM
- GI50 (LOX IMVI melanoma): 3.45 µM
- TGI (LOX IMVI melanoma): > 100 µM
- GI50 (M14 melanoma): 5.24 µM
- TGI (M14 melanoma): 23.7 µM
- GI50 (MALME-3M melanoma): 2.34 µM
- TGI (MALME-3M melanoma): 6.47 µM
- GI50 (MCF7 breast): 3.13 µM
- TGI (MCF7 breast): 24 µM
- GI50 (MDA-MB-231 breast): 5.37 µM
- TGI (MDA-MB-231 breast): 19.3 µM
- GI50 (MDA-MB-435): 4.03 µM
- TGI (MDA-MB-435): 21.4 µM
- GI50 (MDA-MB-468 breast): 3.44 µM
- TGI (MDA-MB-468 breast): 15.5 µM
- GI50 (MOLT-4 leukemia): 1.89 µM
- TGI (MOLT-4 leukemia): 6.02 µM
- GI50 (NCI-H226 lung): 3.07 µM
- TGI (NCI-H226 lung): 18 µM
- GI50 (NCI-H23 lung): 4.31 µM
- TGI (NCI-H23 lung): > 100 µM
- GI50 (NCI-H460 lung): 3.62 µM
- TGI (NCI-H460 lung): 19.4 µM
- GI50 (NCI-H522 lung): 3.78 µM
- TGI (NCI-H522 lung): 36.9 µM
- GI50 (OVCAR-3 ovarian): 5.32 µM
- TGI (OVCAR-3 ovarian): 34.3 µM
- GI50 (OVCAR-4 ovarian): 4.02 µM
- TGI (OVCAR-4 ovarian): 25.6 µM
- GI50 (OVCAR-5 ovarian): 7.58 µM
- TGI (OVCAR-5 ovarian): 26.9 µM
- GI50 (OVCAR-8 ovarian): 12.5 µM
- TGI (OVCAR-8 ovarian): > 100 µM
- GI50 (PC-3 prostate): 1.95 µM
- TGI (PC-3 prostate): 12.4 µM
- GI50 (RPMI-8226 leukemia): 2.35 µM
- TGI (RPMI-8226 leukemia): 10.4 µM
- GI50 (RXF 393 renal): 6.93 µM
- TGI (RXF 393 renal): 28.4 µM
- GI50 (SF-268 CNS): 7.91 µM
- TGI (SF-268 CNS): > 100 µM
- GI50 (SF-295 CNS): 2.61 µM
- TGI (SF-295 CNS): 10.1 µM
- GI50 (SF-539 CNS): 5.35 µM
- TGI (SF-539 CNS): 22.2 µM
- GI50 (SK-MEL-2 melanoma): 10.1 µM
- TGI (SK-MEL-2 melanoma): 23.6 µM
- GI50 (SK-MEL-28 melanoma): 6.79 µM
- TGI (SK-MEL-28 melanoma): 26.3 µM
- GI50 (SK-MEL-5 melanoma): 3.29 µM
- TGI (SK-MEL-5 melanoma): 10.8 µM
- GI50 (SK-OV-3 ovarian): 14.2 µM
- TGI (SK-OV-3 ovarian): 69.1 µM
- GI50 (SN12C renal): 3.3 µM
- TGI (SN12C renal): 15.8 µM
- GI50 (SNB-19 CNS): 4.53 µM
- TGI (SNB-19 CNS): 33.3 µM
- GI50 (SNB-75 CNS): 12.6 µM
- TGI (SNB-75 CNS): 43.9 µM
- GI50 (SR leukemia): 2.5 µM
- TGI (SR leukemia): 7.71 µM
- GI50 (SW-620 colon): 4.39 µM
- TGI (SW-620 colon): > 100 µM
- GI50 (T-47D breast): 3.39 µM
- TGI (T-47D breast): 93.9 µM
- GI50 (TK-10 renal): 19.7 µM
- TGI (TK-10 renal): 58.3 µM
- GI50 (U251 CNS): 6.23 µM
- TGI (U251 CNS): 62.4 µM
- GI50 (UACC-257 melanoma): 13.3 µM
- TGI (UACC-257 melanoma): 62.6 µM
- GI50 (UACC-62 melanoma): 2.61 µM
- TGI (UACC-62 melanoma): 13.3 µM
- GI50 (UO-31 renal): 2.07 µM
- TGI (UO-31 renal): 14.9 µM
